Experimental data: patent publication EP0552418A1, “N-substituted-3-iodopropiolamide, production and use thereof” (TAKEDA CHEMICAL INDUSTRIES, LTD., priority 1992, dated 1993)

Columns and labels:
[1] = tested on: wood rot fungi; assay: Preserving activity for wood preservatives, overall statement for both wood rot fungi; format: cell-based, Tyromyces palustris, Coriolus versicolor; conditions: statement in words on Table 2
Description: This test was conducted according to Specification No. 1 of Japan Wood Preserving Association, enacted in 1979, amended in 1989 and titled "Test methods of preserving activity for wood preservatives used in the coating, spraying and dipping treatment".
• ① Tyromyces palustris (Ber. et Curt.) Murr., FFPRI 0507 --"Ouzuratake" • ② Coriolus versicolor(L. ex Fr.) Quélet, FFPRI 1030 --"Kawaratake" These two fungi are classified as wood rot fungi.
The antimicrobial operation was performed with specifying types of fungi for corresponding type of trees. The combinations were as follows: Cedar----Tyromyces palustris ("Ouzuratake") Beech----Coriolus versicolor ("Kawaratake")
The test results were presented by the ratio of average weight loss of test specimens due to antimicrobial operation. The standard deviation and coefficient of variation were also determined. The ratio of weight loss for each test specimen was calculated by the following equation, and its average was also determined: The ratio of weight loss(%) = (W₃ - W₄ ) / W₃ × 100. Lower value of the ratio of weight loss corresponds to higher wood preserving activity. […]

[2] = tested on: Aspergillus Niger, Penicillium funiculosum, Rhizopus javanicus, Aureobasidium pullulans, Gliocladium virens; assay: Fungicide activity for wood fungicide, sum over the five fungi and damage value; format: cell-based; conditions: for damage value (D = S₁ / S₀ × 100): relative to untreated specimens (100.0), lower = higher activity; for wood fungicide activity: statement in words on Table 3
Description: This test was conducted according to Specification No.2 of Japan Wood Preserving Association, enacted in 1979 and titled "Test methods of fungicide activity for wood fungicide".
• ① Aspergillus niger van Tieghem IFO 6341 = ATCC 6275 • ② Penicillium funiculosum Thom (formerly : Penicillium luteum Zukal) IFO 6345 = ATCC 9644 . • ③ Rhizopus javanicus Takeda (formerly : Rhizopus nigricans Ehrenberg S.N. 32) IFO 6354 • ④ Aureobasidium pullulans (de Bary) Arnaud IFO 6353 = IAM (H. Iizuka, F-24) • ⑤ Gliocladium virens Miller, Gidden & Fosteb IFO 6355 = ATCC 9645 (formerly : Trichoderma viride, T.I.)
The average rating (A) was determined for each type of fungi with the following equation: Average rating (A) = (a₁ + a₂ + a₃ + a₄ + a₅ + a₆ ) / 6 [formula] wherein a₁, a₂ ...a₆ : rating for each test specimen.
The damage value was determined with the following equation after determining the sum of average rating by adding each rating of test specimens for each concentration of fungicide solution: S = A₁ + A₂ + A₃ + A₄ + A₅ [formula] wherein A₁, A₂.., A₅: average rating for each type of fungi D = S₁ / S₀ × 100 [formula] wherein S₀ : S for untreated test specimens S₁ : S for specimens treated with certain concentration of fungicide solution
Both lower rating value and lower damage value correspond to higher wood fungicide activity. […]

Compound: CC(C)(C)NC(=O)C#CI [Example 1, N-(tert-Butyl)-3-iodopropiolamide]
- wood preserving activity [1]: excellent wood preserving activity
- damage value (D = S₁ / S₀ × 100) ([2]; 0.5% xylene solution): 13.3
- wood fungicide activity [2]: excellent wood fungicide activity

Compound: CCCCCCCCCCNC(=O)C#CI [Example 2, N-(n-Decyl)-3-iodopropiolamide]
- wood preserving activity [1]: excellent wood preserving activity
- damage value (D = S₁ / S₀ × 100) ([2]; 0.5% xylene solution): 62.2

Compound: CCCCNC(=O)C#CI [Example 4, N-(n-Butyl)-3-iodopropiolamide]
- wood preserving activity [1]: excellent wood preserving activity
- wood fungicide activity [2]: excellent wood fungicide activity

Compound: CCC(C)NC(=O)C#CI (stereo not drawn) [Example 5, N-(sec-Butyl)-3-iodopropiolamide]
- wood preserving activity [1]: excellent wood preserving activity
- damage value (D = S₁ / S₀ × 100) ([2]; 0.5% xylene solution): 28.9
- wood fungicide activity [2]: excellent wood fungicide activity

Compound: CC(C)CNC(=O)C#CI [Example 6, N-Isobutyl-3-iodopropiolamide]
- wood preserving activity [1]: excellent wood preserving activity
- damage value (D = S₁ / S₀ × 100) ([2]; 0.5% xylene solution): 20.2
- wood fungicide activity [2]: excellent wood fungicide activity

Compound: CCCCCNC(=O)C#CI [Example 7, N-(n-Pentyl)-3-iodopropiolamide]
- wood preserving activity [1]: excellent wood preserving activity
- damage value (D = S₁ / S₀ × 100) ([2]; 0.5% xylene solution): 34.4

Compound: CCCCCCNC(=O)C#CI [Example 8, N-(n-Hexyl)-3-iodopropiolamide]
- wood preserving activity [1]: excellent wood preserving activity
- damage value (D = S₁ / S₀ × 100) ([2]; 0.5% xylene solution): 23.3
- wood fungicide activity [2]: excellent wood fungicide activity

Compound: CCCCCCCCNC(=O)C#CI [Example 10, N-(n-Octyl)-3-iodopropiolamide]
- damage value (D = S₁ / S₀ × 100) ([2]; 0.5% xylene solution): 54.4

Compound: CCCCCCCCCNC(=O)C#CI [Example 11, N-(n-Nonyl)-3-iodopropiolamide]
- damage value (D = S₁ / S₀ × 100) ([2]; 0.5% xylene solution): 82.2
- Sum (S = A₁ + A₂ + A₃ + A₄ + A₅) ([2]; 0.5% xylene solution, sum of average ratings of five fungi, untreated 15.0): 12.3
